IC50 data for 1 compound are collected here from patent publication US6433197B1, “Substituted oxygen alicyclic compounds, including methods for synthesis thereof” (Millennium Pharmaceuticals, Inc., priority 1998, dated 2002).

For this test, the system named is Leukotriene B4. Kind of test: Human whole blood assay, Leukotriene B4 inhibition. As to conditions: heparinized human whole blood; pre-incubated 15 minutes at 37° C.; stimulated with 50 μM calcium ionphor for 30 minutes at 37° C.; EIA; read-out: IC50 (Leukotriene B4 inhibition, LTB4 content of plasma). It counts as cell-based. The protocol:
The following compound of the invention was tested for Leukotriene B4 inhibition in the human whole blood assay detailed below. [drawing 40]
Heparinized human whole blood was pre-incubated with selected concentrations of the test compound for 15 minutes at 37° C. and stimulated with 50 μM calcium ionphor for 30 minutes at 37° C. The reaction was stopped by placing samples on ice and cold centrifugation at 4° C. for 10 minutes at 1100×g. Test sample plasma was diluted in buffer and assayed for LTB4 content. Test compound activity was determined as per Cayman […] EIA and evaluated as IC50 [nM].

Turning to `NC(=O)N(O)CC#CC1CC[C@@H](Cc2ccc(F)cc2)O1` (stereo partly shown), the IC50 came to 0.148 µM.

In general, IC50 refers to the concentration at which inhibition is half-maximal.
